Measurements from ChEMBL document CHEMBL4819104, “Discovery of 2-amino-3-amido-5-aryl-pyridines as highly potent, orally bioavailable, and efficacious PERK kinase inhibitors” (Bioorg Med Chem Lett, 2021).

Assays:
[1] = Apparent permeability of the compound across apical to basolateral side in human Caco-2 cells; format: ADME, cell-based; details: read-out: permeability
[2] = system: Tyrosine-protein kinase ABL1 (Homo sapiens), P00519 [F317L]; assay: Inhibition of human non-phosphorylated ABL1 F317L mutant (S229 to K512 residues) expressed in mammalian expression system assessed as residual activity at 10 uM by Kinomescan method relative to control
Chain of Tyrosine-protein kinase ABL1 (Homo sapiens), P00519 [F317L] (P00519 whole entry F317L, the tested form may be a part): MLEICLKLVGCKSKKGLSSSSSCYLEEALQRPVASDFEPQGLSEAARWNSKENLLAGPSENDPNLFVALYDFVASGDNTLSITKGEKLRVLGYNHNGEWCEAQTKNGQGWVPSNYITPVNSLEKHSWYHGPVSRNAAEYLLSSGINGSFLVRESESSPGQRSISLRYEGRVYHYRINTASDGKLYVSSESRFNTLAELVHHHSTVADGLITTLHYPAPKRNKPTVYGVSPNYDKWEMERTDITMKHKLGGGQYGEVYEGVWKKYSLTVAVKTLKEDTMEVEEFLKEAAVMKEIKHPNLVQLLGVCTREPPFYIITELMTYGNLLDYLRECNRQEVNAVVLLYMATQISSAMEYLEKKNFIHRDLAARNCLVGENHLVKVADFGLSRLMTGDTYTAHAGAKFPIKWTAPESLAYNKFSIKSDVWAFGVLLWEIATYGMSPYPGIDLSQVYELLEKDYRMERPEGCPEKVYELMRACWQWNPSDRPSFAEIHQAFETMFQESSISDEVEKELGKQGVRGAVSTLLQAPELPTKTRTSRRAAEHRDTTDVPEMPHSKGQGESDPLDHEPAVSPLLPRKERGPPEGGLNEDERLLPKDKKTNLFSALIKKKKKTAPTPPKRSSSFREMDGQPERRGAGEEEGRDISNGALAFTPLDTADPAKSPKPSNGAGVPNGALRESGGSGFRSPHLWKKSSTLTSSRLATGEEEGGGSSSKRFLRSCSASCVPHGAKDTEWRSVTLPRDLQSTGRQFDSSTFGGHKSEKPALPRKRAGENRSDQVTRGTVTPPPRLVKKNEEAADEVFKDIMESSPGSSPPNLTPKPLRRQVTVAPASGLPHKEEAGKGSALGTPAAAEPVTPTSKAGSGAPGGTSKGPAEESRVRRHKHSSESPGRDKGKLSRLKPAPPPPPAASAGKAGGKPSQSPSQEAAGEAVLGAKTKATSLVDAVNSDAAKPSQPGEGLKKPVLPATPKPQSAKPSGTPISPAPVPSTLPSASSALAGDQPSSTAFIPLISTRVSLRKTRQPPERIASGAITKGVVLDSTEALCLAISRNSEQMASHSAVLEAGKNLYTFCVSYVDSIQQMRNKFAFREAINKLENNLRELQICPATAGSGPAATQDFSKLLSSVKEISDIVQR

[3] = target: T1, Receptor-interacting serine/threonine-protein kinase 1 (Homo sapiens) (UniProt Q13546); assay: Inhibition of wild-type human partial length RIPK1 (M1 to K305 residues) expressed in bacterial expression system assessed as residual activity at 10 uM by Kinomescan method relative to control
T1 sequence (whole entry): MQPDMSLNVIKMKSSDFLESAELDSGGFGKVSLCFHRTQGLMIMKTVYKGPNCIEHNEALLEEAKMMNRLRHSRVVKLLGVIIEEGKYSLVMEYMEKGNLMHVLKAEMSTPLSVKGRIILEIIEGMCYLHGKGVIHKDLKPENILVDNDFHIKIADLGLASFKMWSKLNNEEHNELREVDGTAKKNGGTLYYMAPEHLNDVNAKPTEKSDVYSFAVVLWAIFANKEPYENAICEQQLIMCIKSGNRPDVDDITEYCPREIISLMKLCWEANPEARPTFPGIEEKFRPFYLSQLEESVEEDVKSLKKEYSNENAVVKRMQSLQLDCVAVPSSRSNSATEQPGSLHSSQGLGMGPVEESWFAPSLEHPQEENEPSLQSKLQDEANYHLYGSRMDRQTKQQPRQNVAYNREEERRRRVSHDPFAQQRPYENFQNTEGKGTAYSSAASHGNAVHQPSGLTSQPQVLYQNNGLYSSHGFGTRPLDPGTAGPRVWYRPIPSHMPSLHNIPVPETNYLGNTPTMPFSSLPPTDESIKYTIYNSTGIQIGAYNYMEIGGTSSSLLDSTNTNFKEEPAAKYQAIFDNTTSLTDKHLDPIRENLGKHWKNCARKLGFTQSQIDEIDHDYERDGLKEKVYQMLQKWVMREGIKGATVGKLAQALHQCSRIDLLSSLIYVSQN

[4] = target: Aurora kinase B (Homo sapiens) (UniProt Q96GD4); assay: Inhibition of wild-type human partial length AURKB (D25 to A303 residues) expressed in mammalian expression system assessed as residual activity at 10 uM by Kinomescan method relative to control
Chain of Aurora kinase B (Homo sapiens) (Q96GD4 whole entry, the tested form may be a part): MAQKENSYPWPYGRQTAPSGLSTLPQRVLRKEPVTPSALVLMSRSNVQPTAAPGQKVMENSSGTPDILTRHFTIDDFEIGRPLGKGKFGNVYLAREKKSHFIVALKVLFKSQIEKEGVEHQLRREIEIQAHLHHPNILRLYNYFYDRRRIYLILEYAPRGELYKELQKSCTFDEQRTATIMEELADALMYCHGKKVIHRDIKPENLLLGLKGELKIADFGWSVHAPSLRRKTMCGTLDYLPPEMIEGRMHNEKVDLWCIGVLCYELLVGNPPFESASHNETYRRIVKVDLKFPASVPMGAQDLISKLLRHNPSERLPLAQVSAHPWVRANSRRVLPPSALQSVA

## CCc1cc(NC(=O)[C@H](O)c2cc(F)cc(F)c2)ccc1-c1cnc(N)c(C(=O)NC(C)C)c1
[1]
  Papp A→B: 22 ×10⁻⁶ cm/s
[2]
  Activity: 100%
[3]
  Activity: 100%
[4]
  Activity: 75%
